US8952024B2, “Herbicidal pyrimidone derivatives” (E I du Pont de Nemours and Company, priority 2009, dated 2015)

Tests used:
Test in all cases: Test D pre-/postemergence plant response
Format in all cases: in vivo
[1] = tested on: Surinam grass (Brachiaria decumbens)
How it was run: (§1)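 Seeds were sown in a loam–sand blend and sprayed preemergence with compound in a non-phytotoxic solvent mixture containing surfactant; plants at 2–18 cm (1- to 4-leaf stage) received the same formulation postemergence. After 14 to 21 days in a greenhouse, injury was rated visually against untreated controls (0 = no effect, 100 = complete control).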

[2] = tested on: signalgrass (broadleaf signalgrass, Brachiaria platyphylla)
How it was run: as §1

[3] = tested on: naked crabgrass (Digitaria nuda)
How it was run: as §1

[4] = tested on: barnyardgrass (Echinochloa crus-galli)
How it was run: as §1

[5] = tested on: dayflower (Virginia (VA) dayflower, Commelina virginica)
How it was run: as §1

[6] = tested on: Italian ryegrass (Lolium multiflorum)
How it was run: as §1

[7] = tested on: itchgrass (Rottboellia cochinchinensis)
How it was run: as §1

[8] = tested on: bluegrass (annual bluegrass, Poa annua)
How it was run: as §1

[9] = tested on: quackgrass (Elytrigia repens)
How it was run: as §1

[10] = tested on: sandbur (southern sandbur, Cenchrus echinatus)
How it was run: as §1

[11] = tested on: ragweed (common ragweed, Ambrosia elatior)
How it was run: as §1

[12] = tested on: large crabgrass (Digitaria sanguinalis)
How it was run: as §1

[13] = tested on: guineagrass (Panicum maximum)
How it was run: as §1

[14] = tested on: dallisgrass (Paspalum dilatatum)
How it was run: as §1

[15] = Postemergence, 31 g ai/ha, scale 0 to 100
[16] = Postemergence, 125 g ai/ha, scale 0 to 100 (0 no effect, 100 complete control)
[17] = Postemergence, 62 g ai/ha, scale 0 to 100 (0 no effect, 100 complete control)
[18] = Preemergence, 16 g ai/ha, scale 0 to 100, 0 no effect, 100 complete control
[19] = Preemergence, 31 g ai/ha, scale 0 to 100 (0 no effect, 100 complete control)
[20] = Preemergence, 125 g ai/ha, scale 0 to 100
[21] = Postemergence, 16 g ai/ha, scale 0 to 100
[22] = Preemergence, 62 g ai/ha, scale 0 to 100
[23] = Postemergence, 31 g ai/ha, scale 0 to 100 (0 no effect, 100 complete control)

## O=C1CCCC(O)=C1C(=O)c1cnc(-c2cccs2)n(-c2ccccc2)c1=O [Compound 66]
[1]; [15]
  Plant response rating, Surinam Grass: 60
[1]; [16]
  Plant response rating, Surinam Grass: 90
[1]; [17]
  Plant response rating, Surinam Grass: 90
[1]; [18]
  Plant response rating, Surinam Grass: 0
[1]; [19]
  Plant response rating, Surinam Grass: 80
[1]; [20]
  Plant response rating, Surinam Grass: 98
[2]; [21]
  Plant response rating, Signalgrass: 0
[2]; [15]
  Plant response rating, Signalgrass: 10
[2]; [16]
  Plant response rating, Signalgrass: 30
[2]; [17]
  Plant response rating, Signalgrass: 30
[2]; [18]
  Plant response rating, Signalgrass: 0
[2]; [19]
  Plant response rating, Signalgrass: 5
[2]; [20]
  Plant response rating, Signalgrass: 5
[3]; [15]
  Plant response rating, Crabgrass, Naked: 50
[3]; [16]
  Plant response rating, Crabgrass, Naked: 70
[3]; [17]
  Plant response rating, Crabgrass, Naked: 65
[3]; [18]
  Plant response rating, Crabgrass, Naked: 0
[3]; [19]
  Plant response rating, Crabgrass, Naked: 0
[3]; [22]
  Plant response rating, Crabgrass, Naked: 10
[3]; [20]
  Plant response rating, Crabgrass, Naked: 25
[4]; [21]
  Plant response rating, Barnyardgrass: 35
[4]; [23]
  Plant response rating, Barnyardgrass: 65
[4]; [16]
  Plant response rating, Barnyardgrass: 75
[4]; [17]
  Plant response rating, Barnyardgrass: 70
[4]; [18]
  Plant response rating, Barnyardgrass: 0
[4]; [19]
  Plant response rating, Barnyardgrass: 0
[4]; [22]
  Plant response rating, Barnyardgrass: 5
[4]; [20]
  Plant response rating, Barnyardgrass: 75
[5]; [21]
  Plant response rating, Dayflower, VA: 0
[5]; [15]
  Plant response rating, Dayflower, VA: 0
[5]; [16]
  Plant response rating, Dayflower, VA: 30
[5]; [17]
  Plant response rating, Dayflower, VA: 0
[5]; [18]
  Plant response rating, Dayflower, VA: 0
[5]; [19]
  Plant response rating, Dayflower, VA: 0
[5]; [22]
  Plant response rating, Dayflower, VA: 0
[5]; [20]
  Plant response rating, Dayflower, VA: 5
[6]; [21]
  Plant response rating, Ryegrass, Italian: 0
[6]; [15]
  Plant response rating, Ryegrass, Italian: 0
[6]; [16]
  Plant response rating, Ryegrass, Italian: 15
[6]; [17]
  Plant response rating, Ryegrass, Italian: 0
[6]; [18]
  Plant response rating, Ryegrass, Italian: 0
[6]; [19]
  Plant response rating, Ryegrass, Italian: 0
[6]; [20]
  Plant response rating, Ryegrass, Italian: 0
[7]; [21]
  Plant response rating, Itchgrass: 10
[7]; [15]
  Plant response rating, Itchgrass: 15
[7]; [16]
  Plant response rating, Itchgrass: 40
[7]; [17]
  Plant response rating, Itchgrass: 35
[7]; [18]
  Plant response rating, Itchgrass: 0
[7]; [19]
  Plant response rating, Itchgrass: 0
[7]; [22]
  Plant response rating, Itchgrass: 0
[7]; [20]
  Plant response rating, Itchgrass: 0
[8]; [21]
  Plant response rating, Bluegrass: 0
[8]; [23]
  Plant response rating, Bluegrass: 0
[8]; [16]
  Plant response rating, Bluegrass: 0
[8]; [17]
  Plant response rating, Bluegrass: 0
[8]; [18]
  Plant response rating, Bluegrass: 0
[8]; [19]
  Plant response rating, Bluegrass: 0
[8]; [22]
  Plant response rating, Bluegrass: 0
[8]; [20]
  Plant response rating, Bluegrass: 0
[9]; [21]
  Plant response rating, Quackgrass: 0
[9]; [15]
  Plant response rating, Quackgrass: 5
[9]; [16]
  Plant response rating, Quackgrass: 5
[9]; [17]
  Plant response rating, Quackgrass: 5
[9]; [18]
  Plant response rating, Quackgrass: 0
[9]; [19]
  Plant response rating, Quackgrass: 0
[9]; [20]
  Plant response rating, Quackgrass: 0
[10]; [15]
  Plant response rating, Sandbur: 35
[10]; [16]
  Plant response rating, Sandbur: 90
[10]; [17]
  Plant response rating, Sandbur: 35
[10]; [18]
  Plant response rating, Sandbur: 0
[10]; [19]
  Plant response rating, Sandbur: 5
[10]; [20]
  Plant response rating, Sandbur: 80
[11]; [21]
  Plant response rating, Ragweed: 0
[11]; [15]
  Plant response rating, Ragweed: 0
[11]; [16]
  Plant response rating, Ragweed: 5
[11]; [17]
  Plant response rating, Ragweed: 0
[11]; [18]
  Plant response rating, Ragweed: 0
[11]; [19]
  Plant response rating, Ragweed: 0
[11]; [20]
  Plant response rating, Ragweed: 0
[12]; [21]
  Plant response rating, Crabgrass, Large: 20
[12]; [15]
  Plant response rating, Crabgrass, Large: 25
[12]; [16]
  Plant response rating, Crabgrass, Large: 35
[12]; [17]
  Plant response rating, Crabgrass, Large: 25
[12]; [18]
  Plant response rating, Crabgrass, Large: 15
[12]; [19]
  Plant response rating, Crabgrass, Large: 30
[12]; [22]
  Plant response rating, Crabgrass, Large: 50
[12]; [20]
  Plant response rating, Crabgrass, Large: 98
[13]; [21]
  Plant response rating, Guineagrass: 5
[13]; [15]
  Plant response rating, Guineagrass: 5
[13]; [16]
  Plant response rating, Guineagrass: 30
[13]; [17]
  Plant response rating, Guineagrass: 10
[13]; [18]
  Plant response rating, Guineagrass: 0
[13]; [19]
  Plant response rating, Guineagrass: 0
[13]; [22]
  Plant response rating, Guineagrass: 0
[13]; [20]
  Plant response rating, Guineagrass: 65
[14]; [21]
  Plant response rating, Dallisgrass: 35
[14]; [15]
  Plant response rating, Dallisgrass: 35
[14]; [16]
  Plant response rating, Dallisgrass: 60
[14]; [17]
  Plant response rating, Dallisgrass: 35
[14]; [18]
  Plant response rating, Dallisgrass: 0
[14]; [19]
  Plant response rating, Dallisgrass: 5
[14]; [22]
  Plant response rating, Dallisgrass: 5
[14]; [20]
  Plant response rating, Dallisgrass: 95
